Measurements from patent publication US20160158200A1, “Combinations of Hepatitis C Virus Inhibitors” (priority 2013, published 2016).

How the values were obtained:
[1] = system: HCV genotype 1a Y93H variant with tyrosine 93 changed to histidine in the NS5A protein; assay: microbe, parasite or virus in culture; type: cell-based; settings: genotype 1a Y93H replicon; test compound titrated with compound N47 fixed at 200 nM versus singly
Summary of the method: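 In an HCV genotype 1a replicon cell-based assay carrying the NS5A Y93H substitution, BMS-790052 was tested alone and in combination with a fixed amount of a second test compound. The combinations were examined for synergistic activity.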

[2] = system: HCV genotype 1a L31V variant with leucine 31 changed to valine in the NS5A protein; assay: microbe, parasite or virus in culture; type: cell-based; settings: genotype 1a L31V replicon; test compound titrated with compound N47 fixed at 200 nM versus singly

Row | SMILES | Fold-Synergistic G-1a (Y93H) [1] [fold] | Fold-Synergistic G-1a (L31V) [2] [fold]
1 | COC(=O)N[C@@H](C)C(=O)N1[C@@H]2CC[C@@H](C2)[C@H]1c1nc(-c2ccc(-c3ccc(-c4cnc([C@@H]5[C@H]6CC[C@H](C6)N5C(=O)[C@H](C)NC(=O)OC)[nH]4)cc3)cc2)c[nH]1 | <10 | >10
2 | COC(=O)N[C@H](C(=O)N1[C@@H]2C[C@@H]2C[C@H]1c1nc2ccc(-c3ccc4cc(-c5ccc6nc([C@@H]7C[C@H]8C[C@H]8N7C(=O)[C@@H](NC(=O)OC)C(C)C)[nH]c6c5)ccc4c3)cc2[nH]1)C(C)C | >10 | >10
3 | COC(=O)N[C@H](C(=O)N1[C@@H]2C[C@@H]2C[C@H]1c1ncc(-c2ccc3cc(-c4ccc5[nH]c([C@@H]6C[C@H]7C[C@H]7N6C(=O)[C@@H](NC(=O)OC)C(C)C)nc5c4)ccc3c2)[nH]1)C(C)C | >100 | >100
4 | O=C(Nc1ccc(/C=C/c2ccc(NC(=O)[C@@H]3CCCN3C(=O)Cc3cccnc3)nc2)cn1)[C@@H]1CCCN1C(=O)Cc1cccnc1 | <10 | <10
5 | COC(=O)N[C@@H](C(=O)N1CCC[C@H]1c1ncc(-c2ccc(-c3ccc(-c4cnc([C@@H]5CCCN5C(=O)[C@H]5CCCO5)[nH]4)cc3)cc2)[nH]1)c1ccccc1 | <10 | <10
6 | COC(=O)N[C@H](C(=O)N1[C@@H](C)CC[C@H]1c1ncc(-c2ccc(-c3ccc4cc(-c5cnc([C@@H]6CC[C@H](C)N6C(=O)[C@@H](NC(=O)OC)C6CCOCC6)[nH]5)ccc4c3)cc2)[nH]1)C1CCOCC1 | >10 | <10
7 | COC(=O)N[C@H](C(=O)N1[C@@H]2C[C@@H]2C[C@H]1c1cnc(-c2ccc(C#Cc3ccc(-c4ncc([C@@H]5C[C@H]6C[C@H]6N5C(=O)[C@@H](NC(=O)OC)C(C)C)[nH]4)cc3)cc2)[nH]1)C(C)C | >10 | <10
8 | COC(=O)N[C@@H](C(=O)N1CCC[C@H]1c1nc2cc(-c3ccc(-c4ccc5c(ccc6[nH]c([C@@H]7CCCN7C(=O)[C@H](NC(=O)OC)c7ccccc7)nc65)c4)cc3)ccc2[nH]1)c1ccccc1 | <10 | <10
9 | COC(=O)N[C@H](C(=O)N1[C@H](c2ncc(-c3ccc(-c4ccc(-c5cnc([C@@H]6CCN(C)N6C(=O)[C@@H](NC(=O)OC)C(C)C)[nH]5)cc4)cc3)[nH]2)CCN1C)C(C)C | >100 | >100
10 | O=C(Cc1ccccc1)N1CCC[C@H]1c1nc2cc(CCc3ccc4nc([C@@H]5CCCN5C(=O)Cc5ccccc5)[nH]c4c3)ccc2[nH]1 | <10 | <10
11 | O=C(Nc1ccc(C#Cc2ccc(NC(=O)[C@@H]3CCCN3C(=O)Cc3ccccc3)cn2)nc1)[C@@H]1CCCN1C(=O)Cc1ccccc1 | <10 | <10
12 | COC(=O)N[C@H](C(=O)N1CC2(CC2)C[C@H]1c1nc(-c2ccc3c(c2)C(F)(F)c2cc(-c4ccc5nc([C@@H]6[C@H]7CC[C@H](C7)N6C(=O)[C@@H](NC(=O)OC)C(C)C)[nH]c5c4)ccc2-3)c[nH]1)C(C)C | >100 | >10
13 | CN(C)[C@@H](C(=O)N1CCC[C@H]1c1nc2ccc(-c3ccc4nc([C@@H]5CCCN5C(=O)[C@@H](c5ccccc5)N(C)C)[nH]c4c3)cc2[nH]1)c1ccccc1 | <10 | <10
14 | COC(=O)N[C@H](C(=O)N1CCC[C@H]1C(=O)NC1Cc2ccc(-c3ccc4c(c3)CC(NC(=O)[C@@H]3CCCN3C(=O)[C@@H](NC(=O)OC)C(C)C)C4)cc2C1)C(C)C (stereo partly drawn) | >10 | >10
15 | COC(=O)N[C@H](C(=O)N1[C@H](C)CC[C@H]1c1ncc(-c2ccc(-c3ccc(-c4cnc([C@@H]5CC[C@@H](C)N5C(=O)[C@@H](NC(=O)OC)C(C)C)[nH]4)cc3)cc2)[nH]1)C(C)C | >100 | >100
16 | COC(=O)N[C@H](C(=O)N1[C@@H]2C[C@@H]2C[C@H]1c1ncc(-c2ccc([C@H]3C[C@@H]3c3ccc(-c4cnc([C@@H]5C[C@H]6C[C@H]6N5C(=O)[C@@H](NC(=O)OC)C(C)C)[nH]4)cc3)cc2)[nH]1)C(C)C | <10 | >10
17 | CN(C)[C@@H](C(=O)N1CCC[C@H]1c1nc(-c2ccc(COCc3ccc(-c4c[nH]c([C@@H]5CCCN5C(=O)[C@@H](c5ccccc5)N(C)C)n4)cc3)cc2)c[nH]1)c1ccccc1 | <10 | <10

Row | SMILES | Fold-Synergistic G-1a (Y93H) [1] [fold] | Fold-Synergistic G-1a (L31V) [2] [fold]
18 | C[C@H](NC(=O)[C@@H](c1ccccc1)N(C)C)c1ncc(-c2ccc(-c3ccc(-c4cnc([C@@H]5CCCN5C(=O)[C@@H](c5ccccc5)N(C)C)[nH]4)cn3)cc2)[nH]1 | <10 | <10
19 | Cc1nc(-c2ccc(NC(=O)[C@@H]3CCCN3C(=O)Cc3ccccc3)cc2)c(-c2ccc(NC(=O)[C@@H]3CCCN3C(=O)Cc3ccccc3)cc2)s1 | <10 | <10
20 | COC(=O)N[C@H](C(=O)N1CCC[C@H]1c1nc(-c2ccc(-c3ccc4c(c3)CCCCc3[nH]c([C@@H]5CCCN5C(=O)[C@@H](NC(=O)OC)C(C)C)nc3-4)cc2)c[nH]1)C(C)C | >100 | >100
21 | COC(=O)N[C@H](C(=O)N1[C@@H]2C[C@@H]2C[C@H]1c1ncc(C#Cc2ccc3cc(-c4cnc([C@@H]5C[C@H]6C[C@H]6N5C(=O)[C@@H](NC(=O)OC)C(C)C)[nH]4)ccc3c2)[nH]1)C(C)C | >100 | >100
22 | COC(=O)N[C@H](C(=O)N1CCC[C@H]1c1nc2ccc(C#CC#Cc3ccc4nc([C@@H]5CCCN5C(=O)[C@@H](NC(=O)OC)C(C)C)[nH]c4c3)cc2[nH]1)C(C)C | >10 | >100
23 | Cc1nc2ccc(-c3cnc(-c4ccc5nc([C@@H]6CCCN6C(=O)[C@@H](c6ccccc6)N(C)C)[nH]c5c4)o3)cc2[nH]1 | <10 | <10
24 | COc1cccc2c(C(=O)N3CCC[C@H]3C(=O)Nc3ccc(-c4ncc(-c5ccc6nc([C@@H]7CCCN7C(=O)c7nc(Cl)cc8c(OC)cccc78)[nH]c6c5)o4)cc3)nc(Cl)cc12 | <10 | <10
25 | CC[C@H](NC(=O)OC)C(=O)N1[C@@H]2C[C@@H]2C[C@H]1c1ncc(-c2ccc(C34CCC(c5cnc([C@@H]6C[C@H]7C[C@H]7N6C(=O)[C@H](CC)NC(=O)OC)[nH]5)(CC3)CC4)cc2)[nH]1 | >100 | >100
26 | CC(C)[C@H](NC(=O)OCc1ccccc1)C(=O)Nc1ccc(-c2cnc(-c3ccc(NC(=O)[C@@H](NC(=O)OCc4ccccc4)C(C)C)cc3)o2)cc1 | <10 | <10
27 | CN(C)[C@@H](C(=O)N1CCC[C@H]1c1ncc(-c2ccc(-c3ccc(-c4ccc(-c5cnc([C@@H]6CCCN6C(=O)[C@@H](c6ccccc6)N(C)C)[nH]5)cc4)cc3)cc2)[nH]1)c1ccccc1 | <10 | <10
28 | CN(C)[C@@H](C(=O)N1CCCC[C@H]1c1ncc(-c2ccc(-c3ccc(-c4cnc([C@@H]5CCCCN5C(=O)[C@@H](c5ccccc5)N(C)C)[nH]4)cc3)cc2)[nH]1)c1ccccc1 | >10 | <10
29 | COC(=O)N[C@@H](C(=O)N1CCC[C@H]1c1nc(-c2ccc(CCc3ccc(-c4c[nH]c([C@@H]5CCCN5C(=O)[C@H](NC(=O)OC)c5ccccc5)n4)cc3)cc2)c[nH]1)c1ccccc1 | <10 | <10
30 | O=C(Nc1ccc(-c2nnc(-c3ccc(NC(=O)[C@@H]4CCCN4C(=O)Cc4cccnc4)cc3)o2)cc1)[C@@H]1CCCN1C(=O)Cc1cccnc1 | <10 | <10
31 | COC(=O)N[C@H](C(=O)N1CCC[C@H]1c1nc(-c2ccc(C#Cc3ccc4[nH]c([C@@H]5CCCN5C(=O)[C@@H](NC(=O)OC)C(C)C)nc4c3)cc2)c[nH]1)C(C)C | >100 | >100
32 | O=C(Nc1ccc(-c2ccc(NC(=O)[C@@H]3CCCN3C(=O)Cc3ccccc3)cc2)cc1)[C@@H]1CCCN1C(=O)Cc1ccccc1 | <10 | <10
33 | COC(=O)N[C@H](C(=O)N1CCC[C@H]1c1nc2cc(C#Cc3ccc(-c4[nH]cnc4[C@@H]4CCCN4C(=O)[C@@H](NC(=O)OC)C(C)C)cc3)ccc2[nH]1)C(C)C | >10 | <10
